Laboratory results reported in ChEMBL document CHEMBL1201862, “PubChem BioAssay data set” (2004).
Activity calls are given as the source filed them. No stated cut-off is given here; in the data, actives have a measured IC50 and inactives only a lower limit.

Columns and labels:
Format in all cases: functional
[1] = target: T1, Sentrin-specific protease 8 (Homo sapiens, UniProt Q96LD8);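 further: luminescence read-out of SENP8 inhibition, dose-response confirmation following an ultra-high-throughput screen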
T1 sequence (Q96LD8 whole entry): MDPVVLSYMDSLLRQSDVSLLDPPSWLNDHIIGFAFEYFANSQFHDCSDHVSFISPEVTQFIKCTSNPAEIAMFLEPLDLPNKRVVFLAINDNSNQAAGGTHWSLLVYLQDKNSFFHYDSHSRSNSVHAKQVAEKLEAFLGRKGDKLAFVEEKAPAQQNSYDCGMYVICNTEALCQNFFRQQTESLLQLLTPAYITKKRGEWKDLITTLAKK

[2] = target: T2, Sentrin-specific protease 7 (Homo sapiens, UniProt Q9BQF6);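 further: Luminescence-based dose-response confirmation of ultra-high-throughput screening hits, measuring inhibition of SENP7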
T2 sequence (Q9BQF6 whole entry): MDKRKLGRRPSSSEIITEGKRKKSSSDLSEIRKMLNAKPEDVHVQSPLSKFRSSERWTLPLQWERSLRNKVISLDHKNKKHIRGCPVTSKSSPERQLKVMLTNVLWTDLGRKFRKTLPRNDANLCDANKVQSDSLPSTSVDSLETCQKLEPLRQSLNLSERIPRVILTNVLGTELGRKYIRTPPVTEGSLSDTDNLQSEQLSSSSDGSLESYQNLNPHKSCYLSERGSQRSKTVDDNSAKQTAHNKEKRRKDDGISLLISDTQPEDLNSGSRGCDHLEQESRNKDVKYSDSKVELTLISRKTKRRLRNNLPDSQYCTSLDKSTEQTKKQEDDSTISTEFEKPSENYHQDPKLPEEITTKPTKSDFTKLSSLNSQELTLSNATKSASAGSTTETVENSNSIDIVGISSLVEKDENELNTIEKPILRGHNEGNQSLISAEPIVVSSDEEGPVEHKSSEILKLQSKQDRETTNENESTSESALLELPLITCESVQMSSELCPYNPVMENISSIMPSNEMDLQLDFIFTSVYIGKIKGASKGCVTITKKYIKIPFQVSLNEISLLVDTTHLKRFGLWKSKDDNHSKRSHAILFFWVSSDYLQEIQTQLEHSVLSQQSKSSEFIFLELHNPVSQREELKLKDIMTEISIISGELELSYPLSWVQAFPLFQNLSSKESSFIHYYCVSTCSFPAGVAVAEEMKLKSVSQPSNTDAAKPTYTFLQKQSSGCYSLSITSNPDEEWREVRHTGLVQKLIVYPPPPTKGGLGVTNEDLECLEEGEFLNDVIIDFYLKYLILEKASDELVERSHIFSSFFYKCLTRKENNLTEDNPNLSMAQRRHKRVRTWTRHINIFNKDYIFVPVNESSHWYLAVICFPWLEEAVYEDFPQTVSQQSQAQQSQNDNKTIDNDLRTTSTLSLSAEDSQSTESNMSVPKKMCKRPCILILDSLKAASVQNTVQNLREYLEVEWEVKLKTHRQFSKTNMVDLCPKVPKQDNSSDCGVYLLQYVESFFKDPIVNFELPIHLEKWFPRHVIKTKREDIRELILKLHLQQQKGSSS

Caspase-3 = target: T3, Caspase-3 (Homo sapiens, UniProt P42574);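 further: Dose-response selectivity test against caspase-3 for candidate inhibitors of sentrin-specific proteases (SENPs)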
T3 sequence (P42574 whole entry): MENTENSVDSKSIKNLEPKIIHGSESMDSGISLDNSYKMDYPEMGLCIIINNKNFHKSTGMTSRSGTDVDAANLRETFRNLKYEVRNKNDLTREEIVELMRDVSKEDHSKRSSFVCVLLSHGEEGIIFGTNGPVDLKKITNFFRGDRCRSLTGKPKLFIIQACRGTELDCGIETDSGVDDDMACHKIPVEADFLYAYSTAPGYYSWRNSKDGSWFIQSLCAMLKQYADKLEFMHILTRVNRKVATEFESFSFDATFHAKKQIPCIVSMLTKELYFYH

[3] = target: T4, Sentrin-specific protease 6 (Homo sapiens, UniProt Q9GZR1);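 further: Luminescence-based dose-response confirmatory assay of SENP6 inhibition, following up an ultra-high-throughput screen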
T4 sequence (Q9GZR1 whole entry): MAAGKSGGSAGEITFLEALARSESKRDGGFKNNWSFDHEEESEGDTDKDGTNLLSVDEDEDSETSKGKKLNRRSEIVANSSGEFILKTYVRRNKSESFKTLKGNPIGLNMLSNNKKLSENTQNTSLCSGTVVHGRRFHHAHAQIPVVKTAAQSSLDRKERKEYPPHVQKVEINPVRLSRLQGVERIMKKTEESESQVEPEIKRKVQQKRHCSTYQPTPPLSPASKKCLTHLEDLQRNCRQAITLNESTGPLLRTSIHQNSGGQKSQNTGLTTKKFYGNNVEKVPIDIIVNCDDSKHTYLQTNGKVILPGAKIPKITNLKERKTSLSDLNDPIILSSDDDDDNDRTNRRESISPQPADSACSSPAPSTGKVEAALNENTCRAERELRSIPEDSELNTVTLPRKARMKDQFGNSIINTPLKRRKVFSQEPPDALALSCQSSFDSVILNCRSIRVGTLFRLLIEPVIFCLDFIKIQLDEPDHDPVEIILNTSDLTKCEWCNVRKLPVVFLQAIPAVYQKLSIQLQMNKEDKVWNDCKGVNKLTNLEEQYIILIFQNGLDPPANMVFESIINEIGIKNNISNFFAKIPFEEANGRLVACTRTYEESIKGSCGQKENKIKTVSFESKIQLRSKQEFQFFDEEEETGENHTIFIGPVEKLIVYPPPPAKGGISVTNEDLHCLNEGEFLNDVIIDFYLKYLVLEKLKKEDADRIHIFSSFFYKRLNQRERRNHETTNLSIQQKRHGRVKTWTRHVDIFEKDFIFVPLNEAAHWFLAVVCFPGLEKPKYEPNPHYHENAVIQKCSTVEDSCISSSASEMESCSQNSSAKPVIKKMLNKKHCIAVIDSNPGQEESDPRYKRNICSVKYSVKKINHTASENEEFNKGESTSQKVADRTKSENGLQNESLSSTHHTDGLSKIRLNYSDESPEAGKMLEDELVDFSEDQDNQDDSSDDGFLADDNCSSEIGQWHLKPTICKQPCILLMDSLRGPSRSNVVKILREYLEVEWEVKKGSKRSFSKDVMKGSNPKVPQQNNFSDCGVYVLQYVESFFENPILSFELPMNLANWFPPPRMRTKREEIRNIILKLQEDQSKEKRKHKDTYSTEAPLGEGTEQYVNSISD

Measured: IC50

O=c1oc2c(O)cccc2cc1-c1nc2ccccc2[nH]1
active: [1] 2.65 µM | [2] 0.955 µM | Caspase-3 0.95 µM | [3] 1.26 µM

C=CCn1c(NC(=O)c2ccccc2Cl)c(C#N)c2nc3ccccc3nc21
active: [1] < 1.55 µM | [2] 3.08 µM | Caspase-3 5.6 µM | [3] < 1.55 µM

CCOC(=O)c1ccc(Nc2cc3ccccc3c(O)n2)cc1
active: [1] 13.6 µM | [2] 10.1 µM | Caspase-3 8.27 µM | [3] 6.63 µM
